Values quoted from earlier work in US20020112260A1, “Plants having resistance to multiple herbicides and its use” (Asgrow Seed Company LLC, priority 1997, published 2002).

System: soybeans
Conditions: non-STS soybeans

In the case of COc1cc(Cl)nc(NC(=O)NS(=O)(=O)c2ccccc2C(=O)O)n1 [chlorimuron], the crop injury is given as “can cause significant crop injury”.
For COc1nc(C)nc(NC(=O)NS(=O)(=O)c2ccsc2C(=O)O)n1 [thifensulfuron], the crop injury is listed as “can cause significant crop injury”.
